Results from patent publication US20260193268A1, “TRICYCLIC PI3Ka INHIBITOR, PREPARATION METHOD THEREFOR, AND PHARMACEUTICAL USE THEREOF” (WIGEN BIOMEDICINE TECHNOLOGY (SHANGHAI) CO., LTD., priority 2022, published 2026).
Like-named read-outs stand apart in the source and are kept apart here.

What was measured:
[1] = system: HCC1954 cells (with PI3Kα H1047R mutation); experiment: In vitro inhibition of HCC1954 cell proliferation (CellTiter-Lumi); type: cell-based; details: Homo sapiens, HCC1954, 144 h, HCC1954 cells, 144 h, CellTiter-Lumi
Procedure: Assay for In Vitro Inhibition of HCC1954 Cell Proliferation by Compounds of the Present Disclosure
The growth of the cells was evaluated, and the IC50 for the inhibition of cell growth by the compounds was calculated.

[2] = system: MCF-7 cells (with PI3Kα E545K mutation); experiment: In vitro inhibition of MCF-7 cell proliferation (CellTiter-Lumi); type: cell-based; details: Homo sapiens, MCF7, 144 h
Summary of the method: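 MCF-7 (PI3Kα E545K) seeded at 2000 cells/well; serially diluted compounds added next day and exposed for 144 h. Cellular ATP read by CellTiter-Lumi luminescence; IC50 for growth inhibition calculated.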

[3] = class symbols, read-out: Inhibitory activity against HCC1954 cells (IC50), class symbols
[4] = class symbols, read-out: Inhibitory activity against MCF-7 cells (IC50), class symbols
[5] = numeric values, read-out: Inhibitory activity against HCC1954 cells (IC50)
[6] = numeric values, read-out: Inhibitory activity against MCF-7 cells (IC50)

| Compound | IC50 [1, 3] [nM] | IC50 [2, 4] [nM] | IC50 [1, 5] [nM] | IC50 [2, 6] [nM] |
| --- | --- | --- | --- | --- |
| CC(C)(C=C(C#N)C(=O)Nc1cnc(N2CC(N3CCN(c4ccc5c(c4)-c4nc(N6C(=O)OC[C@H]6C(F)F)cn4CCO5)CC3)C2)nc1)N1CCOCC1 [Compound 258] | < 50 | < 50 |  |  |
| CC(C)(C)C=C(C#N)C(=O)Nc1cnc(N2CC(N3CCN(c4ccc5c(c4)-c4nc(N6C(=O)OC[C@H]6C(F)F)cn4CCO5)CC3)C2)nc1 [Compound 259] | < 50 | < 50 |  |  |
| CC(C)(N)C=C(C#N)C(=O)Nc1cnc(N2CC(N3CCN(c4ccc5c(c4)-c4nc(N6C(=O)OC[C@H]6C(F)F)cn4CCO5)CC3)C2)nc1 [Compound 260] | < 50 | < 50 |  |  |
| CNC(C)(C)C=C(C#N)C(=O)Nc1cnc(N2CC(N3CCN(c4ccc5c(c4)-c4nc(N6C(=O)OC[C@H]6C(F)F)cn4CCO5)CC3)C2)nc1 [Compound 261] | < 50 | < 50 |  |  |
| CC(C)C=C(C#N)C(=O)Nc1cnc(N2CC(N3CCN(c4ccc5c(c4)-c4nc(N6C(=O)OC[C@H]6C(F)F)cn4CCO5)CC3)C2)nc1 [Compound 262] | < 50 | < 50 |  |  |
| N#CC(=CC1CC1)C(=O)Nc1cnc(N2CC(N3CCN(c4ccc5c(c4)-c4nc(N6C(=O)OC[C@H]6C(F)F)cn4CCO5)CC3)C2)nc1 [Compound 263] | < 50 | < 50 |  |  |
| CC(C)(C=C(C#N)C(=O)Nc1cnc(N2CC(N3CCN(c4ccc5c(c4)-c4nc(N6C(=O)OC[C@H]6C(F)F)cn4CCO5)CC3)C2)nc1)N1CC2(COC2)C1 [Compound 264] | < 50 | < 50 |  |  |
| CC(C)(C=C(C#N)C(=O)Nc1cnc(N2CC(N3CCN(c4ccc5c(c4)-c4nc(N6C(=O)OC[C@H]6C(F)F)cn4CCO5)CC3)C2)nc1)N1CCC1 [Compound 265] | < 50 | < 50 |  |  |
| CC(C)(O)C=C(C#N)C(=O)Nc1cnc(N2CC(N3CCN(c4ccc5c(c4)-c4nc(N6C(=O)OC[C@H]6C(F)F)cn4CCO5)CC3)C2)nc1 [Compound 266] | < 50 | < 50 |  |  |
| COC(C)(C)C=C(C#N)C(=O)Nc1cnc(N2CC(N3CCN(c4ccc5c(c4)-c4nc(N6C(=O)OC[C@H]6C(F)F)cn4CCO5)CC3)C2)nc1 [Compound 267] | < 50 | < 50 |  |  |
| COCCNC(C)(C)C=C(C#N)C(=O)Nc1cnc(N2CC(N3CCN(c4ccc5c(c4)-c4nc(N6C(=O)OC[C@H]6C(F)F)cn4CCO5)CC3)C2)nc1 [Compound 268] | < 50 | < 50 |  |  |
| CC1(C=C(C#N)C(=O)Nc2cnc(N3CC(N4CCN(c5ccc6c(c5)-c5nc(N7C(=O)OC[C@H]7C(F)F)cn5CCO6)CC4)C3)nc2)COC1 [Compound 269] | < 50 | < 50 |  |  |
| N#CC(=CC1CCCN1)C(=O)Nc1cnc(N2CC(N3CCN(c4ccc5c(c4)-c4nc(N6C(=O)OC[C@H]6C(F)F)cn4CCO5)CC3)C2)nc1 (stereo partly shown) [Compound 270] | < 50 | < 50 |  |  |
| N#CC(=CC1(N)CC1)C(=O)Nc1cnc(N2CC(N3CCN(c4ccc5c(c4)-c4nc(N6C(=O)OC[C@H]6C(F)F)cn4CCO5)CC3)C2)nc1 [Compound 271] | < 50 | < 50 |  |  |
| CC=C(C#N)C(=O)Nc1cnc(N2CC(N3CCN(c4ccc5c(c4)-c4nc(N6C(=O)OC[C@H]6C(F)F)cn4CCO5)CC3)C2)nc1 [Compound 272] | < 50 | < 50 |  |  |
| CNC1(C=C(C#N)C(=O)Nc2cnc(N3CC(N4CCN(c5ccc6c(c5)-c5nc(N7C(=O)OC[C@H]7C(F)F)cn5CCO6)CC4)C3)nc2)CC1 [Compound 273] | < 50 | < 50 |  |  |
| CN(C1COC1)C(C)(C)C=C(C#N)C(=O)Nc1ccc(N2CC(N3CCN(c4ccc5c(c4)-c4nc(N6C(=O)OC[C@H]6C(F)F)cn4CCO5)CC3)C2)cc1 [Compound 274] | < 50 | < 50 |  |  |
| CC(C)(N)/C=C/C(=O)Nc1ccc(N2CC(N3CCN(c4ccc5c(c4)-c4nc(N6C(=O)OC[C@H]6C(F)F)cn4CCO5)CC3)C2)cc1 [Compound 276] | < 50 | < 50 |  |  |
| C=CC(=O)Nc1ccc(N2CC(N3CCN(c4ccc5c(c4)-c4nc(N6C(=O)OC[C@H]6C(F)(F)F)cn4CCO5)CC3)C2)cc1 [Compound 277] | < 50 | < 50 |  |  |
| N#CC(=CC1CC1)C(=O)Nc1ccc(N2CC(N3CCN(c4ccc5c(c4)-c4nc(N6C(=O)OC[C@H]6C(F)F)cn4CCO5)CC3)C2)cc1 [Compound 278] |  |  | 42 | 16 |
| C=CC(=O)Nc1ccc(N2CC(N3CCN(c4ccc5c(c4)-c4nc(N6C(=O)OC[C@H]6C(F)F)cn4CCO5)CC3)C2)cc1OC(F)(F)F [Compound 279] |  |  | 2.8 | 0.1 |
| C=CC(=O)Nc1ccc(N2CC(N3CCN(c4ccc5c(c4)-c4nc(N6C(=O)OC[C@H]6C(F)F)cn4CCO5)CC3)C2)c(OC)c1 [Compound 280] |  |  | 3.4 | 0.2 |

| Compound | IC50 [1, 3] [nM] | IC50 [2, 4] [nM] | IC50 [1, 5] [nM] | IC50 [2, 6] [nM] |
| --- | --- | --- | --- | --- |
| COC1(C=C(C#N)C(=O)Nc2ccc(N3CC(N4CCN(c5ccc6c(c5)-c5nc(N7C(=O)OC[C@H]7C(F)F)cn5CCO6)CC4)C3)cc2)CC1 [Compound 282] | < 50 | < 50 |  |  |
| CC1CC1C=C(C#N)C(=O)Nc1ccc(N2CC(N3CCN(c4ccc5c(c4)-c4nc(N6C(=O)OC[C@H]6C(F)F)cn4CCO5)CC3)C2)cc1 (stereo partly shown) [Compound 284] | < 50 | < 50 |  |  |
| CN(C)C/C=C/C(=O)Nc1ccc(N2CC(N3CCN(c4ccc5c(c4)-c4nc(N6C(=O)OC[C@H]6C(F)F)cn4CCO5)CC3)C2)nc1 [Compound 285] | < 50 | < 50 |  |  |
| CN(C)C/C=C/C(=O)Nc1ncc(N2CC(N3CCN(c4ccc5c(c4)-c4nc(N6C(=O)OC[C@H]6C(F)F)cn4CCO5)CC3)C2)cn1 [Compound 286] | < 50 | < 50 |  |  |
| CN(C)C/C=C/C(=O)Nc1ccc(N2CC(N3CCN(c4ccc5c(c4)-c4nc(N6C(=O)OC[C@H]6C(F)F)cn4CCO5)CC3)C2)nn1 [Compound 287] | < 50 | < 50 |  |  |
| CN(C)C/C=C/C(=O)Nc1cnc(N2CC(N3CCN(c4ccc5c(c4)-c4nc(N6C(=O)OC[C@H]6C(F)F)cn4CCO5)CC3)C2)nc1 [Compound 288] | < 50 | < 50 |  |  |
| CN(C1COC1)C(C)(C)C=C(C#N)C(=O)Nc1ccc(N2CC(N3CCN(c4ccc5c(c4)-c4nc(N6C(=O)OC[C@H]6C(F)F)cn4CCO5)CC3)C2)cn1 [Compound 289] | < 50 | < 50 |  |  |
| CC(C)(C=C(C#N)C(=O)Nc1ccc(N2CC(N3CCN(c4ccc5c(c4)-c4nc(N6C(=O)OC[C@H]6C(F)F)cn4CCO5)CC3)C2)cn1)NC1COC1 [Compound 290] | < 50 | < 50 |  |  |
| CC(C)(N)C=C(C#N)C(=O)Nc1ccc(N2CC(N3CCN(c4ccc5c(c4)-c4nc(N6C(=O)OC[C@H]6C(F)F)cn4CCO5)CC3)C2)cn1 [Compound 291] | < 50 | < 50 |  |  |
| CN(C1COC1)C(C)(C)C=C(C#N)C(=O)Nc1ncc(N2CC(N3CCN(c4ccc5c(c4)-c4nc(N6C(=O)OC[C@H]6C(F)F)cn4CCO5)CC3)C2)cn1 [Compound 292] | < 50 | < 50 |  |  |
| CC(C)(C=C(C#N)C(=O)Nc1ncc(N2CC(N3CCN(c4ccc5c(c4)-c4nc(N6C(=O)OC[C@H]6C(F)F)cn4CCO5)CC3)C2)cn1)NC1COC1 [Compound 293] | < 50 | < 50 |  |  |
| CC(C)(N)C=C(C#N)C(=O)Nc1ncc(N2CC(N3CCN(c4ccc5c(c4)-c4nc(N6C(=O)OC[C@H]6C(F)F)cn4CCO5)CC3)C2)cn1 [Compound 294] | < 50 | < 50 |  |  |
| CN(C1COC1)C(C)(C)C=C(C#N)C(=O)Nc1ccc(N2CC(N3CCN(c4ccc5c(c4)-c4nc(N6C(=O)OC[C@H]6C(F)F)cn4CCO5)CC3)C2)nn1 [Compound 295] | < 50 | < 50 |  |  |
| CC(C)(C=C(C#N)C(=O)Nc1ccc(N2CC(N3CCN(c4ccc5c(c4)-c4nc(N6C(=O)OC[C@H]6C(F)F)cn4CCO5)CC3)C2)nn1)NC1COC1 [Compound 296] | < 50 | < 50 |  |  |
| CC(C)(N)C=C(C#N)C(=O)Nc1ccc(N2CC(N3CCN(c4ccc5c(c4)-c4nc(N6C(=O)OC[C@H]6C(F)F)cn4CCO5)CC3)C2)nn1 [Compound 297] | < 50 | < 50 |  |  |
| CNC(C)(C)C=C(C#N)C(=O)Nc1ccc(N2CC(N3CCN(c4ccc5c(c4)-c4nc(N6C(=O)OC[C@H]6C(F)F)cn4CCO5)CC3)C2)cn1 [Compound 298] | < 50 | < 50 |  |  |
| CNC(C)(C)C=C(C#N)C(=O)Nc1ccc(N2CC(N3CCN(c4ccc5c(c4)-c4nc(N6C(=O)OC[C@H]6C(F)F)cn4CCO5)CC3)C2)nn1 [Compound 299] | < 50 | < 50 |  |  |
| CNC(C)(C)C=C(C#N)C(=O)Nc1ncc(N2CC(N3CCN(c4ccc5c(c4)-c4nc(N6C(=O)OC[C@H]6C(F)F)cn4CCO5)CC3)C2)cn1 [Compound 300] | < 50 | < 50 |  |  |
| COCCNC(C)(C)C=C(C#N)C(=O)Nc1ccc(N2CC(N3CCN(c4ccc5c(c4)-c4nc(N6C(=O)OC[C@H]6C(F)F)cn4CCO5)CC3)C2)cn1 [Compound 301] | < 50 | < 50 |  |  |
| COCCNC(C)(C)C=C(C#N)C(=O)Nc1ncc(N2CC(N3CCN(c4ccc5c(c4)-c4nc(N6C(=O)OC[C@H]6C(F)F)cn4CCO5)CC3)C2)cn1 [Compound 302] | < 50 | < 50 |  |  |
| COCCNC(C)(C)C=C(C#N)C(=O)Nc1ccc(N2CC(N3CCN(c4ccc5c(c4)-c4nc(N6C(=O)OC[C@H]6C(F)F)cn4CCO5)CC3)C2)nn1 [Compound 303] | < 50 | < 50 |  |  |
| CC(C)(C=C(C#N)C(=O)Nc1ccc(N2CC(N3CCN(c4ccc5c(c4)-c4nc(N6C(=O)OC[C@H]6C(F)F)cn4CCO5)CC3)C2)cc1)N1CCN(C2COC2)CC1 [Compound 304] | < 50 | < 50 |  |  |
